Measurements: patent publication US6127406A, “Discodermolide compounds and methods of use” (Harbor Branch Oceanographic Institution, Inc., priority 1999, dated 2000)

Key:
[1] = tested on: P388 murine leukemia cell line; experiment: Antiproliferative effect on P388 cells (MTT, 48-hr exposure); format: cell-based; conditions: Mus musculus, read-out: P388 IC-50
Description: (§1) Discodermolide and discodermolide analogs were analyzed as to their effects on proliferation of A549 human adenocarcinoma and P388 murine leukemia cell lines. P388 cells were obtained from Dr. R. Camalier, National Cancer Institute, Bethesda, Md., and A549 cells were obtained from American Type Culture Collection, Rockville, Md. All cell lines were maintained in Roswell Park Memorial Institute (RPMI) medium 1640 supplemented with 10% Rehatuin™ fetal calf serum (Intergen Company, Purchase, N.Y.). All cell lines are cultured in plastic tissue culture flasks and kept in an incubator at 37° C. in humidified air containing 5% CO2. Prior to testing, antibiotic-free stock cultures of each of the cell lines were subcultured to 10^6 cells/ml by dilution in fresh growth medium at 2 to 3 day intervals.
(§2) To assess the antiproliferative effects of agents against the P388 cell line, 200 μl cultures (96-well tissue culture plates, Nunc, Denmark) are established at 1×10^5 cells/ml in drug-free medium or medium containing the test agent at 10.0, 1.0, 0.10 and 0.010 μg/ml. The solvent for all dilutions is ethanol. All experimental cultures are initiated in medium containing Gentamycin sulfate (50 μg/ml; Schering Corporation, Kenilworth, N.J.).
(§3) After 48-hr exposures, P388 cells are enumerated using 3-[4,5-Dimethylthiazol-2-yl]-2,5-diphenyltetrazolium bromide (MTT) (M. C. Alley, et al., Cancer Res. 48:589, 1988). Similar procedures are utilized for A549 cells which require an additional 48 hr exposure prior to MTT addition. Results are expressed as percent inhibition compared to the negative (no drug) control. Positive drug controls are included to monitor drug sensitivity of each of the cell lines. These include varying dilutions of 5-fluorouracil and adriamycin.
(§4) To quantitate the effects on cell proliferation and resulting IC50 values, 75 μl of warm growth media containing 5 mg/ml MTT is added to each well, cultures returned to the incubator, and left undisturbed for 90 minutes. To spectrophotometrically quantitate formation of reduced formazan, plates are centrifuged (900× g, 5 minutes), culture fluids removed by aspiration, and 200 μl of acidified isopropanol (2 ml concentrated HCl/liter isopropanol) added per well. The absorbance of the resulting solutions is measured at 570 nm with a plate reader (TECAN Spectra II PlateReader, TECAN U.S., Research Triangle Park, N.C.) and a 650 nm reference filter. The absorbance of tests wells is divided by the absorbance of drug-free wells, and the concentration of agent that results in 50% of the absorbance of untreated cultures (IC50) is determined by linear regression of logit-transformed data (D. J. Finney, Statistical Method in Biological Assay, third ed., pp.316-348, Charles Griffin Co., London, 1978). A linear relationship between tumor cell number and formazan production has been routinely observed over the range of cell densities observed in these experiments. Two standard drug controls are included in each assay as a check to monitor the drug sensitivity of each of the cell lines and IC50 values are determined for each drug-cell combination.

[2] = tested on: A549 human adenocarcinoma cell line; experiment: Antiproliferative effect on A549 cells (MTT); format: cell-based; conditions: additional 48 hr exposure, read-out: A549 IC-50
Description: as §1
as §3, with “Similar procedures are utilized for A549 cells which require an additional 48 hr exposure prior to MTT addition.” left out
as §4

[3] = tested on: microtubule network of cells; experiment: Microtubule bundling patterns in cells by immunofluorescence; format: cell-based; conditions: for Microtubule bundling: concentration not given
Description: Discodermolide, discodermolide analogs and paclitaxel were evaluated as to their effects on the microtubule network of cells using FITC-labeled, anti-alpha-tubulin monoclonal antibodies.
On day 1, 2.5×10^5 adherent tumor cells were cultured in RPMI 1640 tissue culture medium supplemented with 10% fetal calf serum (TCM) overnight at 37° C. in 5% CO2 on 22 mm^2 coverslips in 6-well microtiter plates. […] On day 3, TCM was removed and cells attached to coverslips were fixed with a 3.7% formaldehyde solution in Dulbecco's PBS for 10 minutes at room temperature. Cells were permeabilized with a 2% Triton X-100 solution, 2 ml per well, for 5 minutes at room temperature and washed twice in Dulbecco's PBS prior to staining.
To each well containing cells attached to coverslips a 2 ml volume of mouse monoclonal anti-alpha-tubulin (Cat # T-5168, Sigma Immuno Chemicals) diluted 1:2400 was added and the cells incubated at 37° C. in 5% CO2 for 45 minutes. Coverslips were rinsed twice with Dulbecco's PBS. A 2 ml volume of goat-anti-mouse-IgG-FITC conjugate (Cat # T-5262, Sigma Immuno Chemicals) diluted at 1:2400 was added and the cells incubated at 37° C. in 5% CO2 for 45 minutes. Coverslips were rinsed once with sterile distilled water and mounted on slides and observed under the microscope using epifluorescence illumination for the presence of abnormal aster and microtubule bundle formation.

[4] = tested on: purified bovine brain tubulin; experiment: Tubulin polymerization (optical density at 350 nm); format: biochemical; conditions: for Polymerization?: 10 uM, 37 C.; for microtubule polymerizing activity compared to discodermolide: compared to the non-acetylated discodermolide
Description: Polymerization of purified bovine brain tubulin (Cytoskeleton Inc., Denver, Colo.) was followed by changes in the optical density of tubulin solutions at 350 nm in a Hitachi U-3010 spectrophotometer equipped with a SPR-10 electronic thermostatted cell holder. Stock solutions of tubulin were diluted on ice in G-PEM buffer (1 mM GTP, 80 mM PIPES, 1 mM EGTA, 0.5 mM magnesium chloride; pH 6.8) to a final concentration of 1 mg/ml. The instrument was zeroed on this solution at 2° C. Discodermolide, its analogs, or paclitaxel were then added to the tubulin solution to a final concentration of 10 μM, quickly mixed, and the absorbance monitored at 37° C.

[5] = tested on: A549 human adenocarcinoma and P388 murine leukemia cell lines; experiment: Antitumor effects of discodermolide analogs compared to discodermolide; format: cell-based; conditions: compared to the non-acetylated discodermolide
Description: as §1, §2, §3
To quantitate the effects on cell proliferation and resulting IC50 values, 75 μl of warm growth media containing 5 mg/ml MTT is added to each well, cultures returned to the incubator, and left undisturbed for 90 minutes. […]

[6] = tested on: purified bovine brain tubulin; experiment: Tubulin polymerization (optical density at 350 nm); format: biochemical; conditions: 10 uM, 6 C.-37 C.
A549 human lung cells = experiment: Effect on cell cycle progression (G2/M block, propidium iodide flow cytometry); format: cell-based; conditions: 100 nM, 48 hr
Description: A549 human lung cells were used as cell cycle targets to compare the effects of discodermolide, discodermolide analogs and paclitaxel on perturbation of the cell cycle. Cell cycle analyses were performed as follows: A549 cells were incubated at 37° C. in 10% CO2 in air in the presence or absence of varying concentrations of discodermolide, discodermolide analogs or paclitaxel (purchased from Molecular Probes, Eugene Oreg.) for 48 hr.
Cells were harvested, fixed in ethanol and stained with 0.5 mg/ml of P.I. together with 0.1 mg/ml of RNAse A. This procedure permeabilizes live cells and allows entry of P.I. to stain DNA (propidium iodide also stains double stranded RNA, so RNAse is included in the preparation to exclude this possibility). Stained preparations were analyzed on a Coulter EPICS ELITE with 488 nm excitation with the dead cells excluded by back gating of P.I. preparations without detergent on forward and side scatter histograms. Fluorescence measurements and resulting DNA histograms were collected from at least 5,000 P.I. stained cells at an emission wavelength of 690 nm. Raw histogram data was further analyzed using a cell cycle analysis program (Multicycle, Phoenix Flow Systems).

Row | Structure (SMILES) | IC50 [1] [µM] | IC50 [2] [µM] | Microtubule Bundling? ([3]; 100 nM) | Microtubule bundling [3] | Polymerization? [4] | Microtubule Bundling? ([3]; 1000 nM) | Microtubule Bundling? ([3]; 10 nM) | microtubule polymerizing activity compared to discodermolide [4] | antitumor activity compared to discodermolide [5] | Polymerization? [6] | G2/M Block (A549 human lung cells) | Microtubule Bundling? ([3]; 100 nM, listed as Discodermolide9) | Polymerization? ([4]; listed as discodermolide 9) | Microtubule Bundling? ([3]; 100 nM, listed as paclitaxel) | Polymerization? ([4]; listed as paclitaxel)
1 | C=CC=CC(C)C(OC(N)=O)C(C)C(OC(C)=O)C(C)CC(C)=CC(C)C(OC(C)=O)C(C)C=CC(CC1OC(=O)C(C)C(OC(C)=O)C1C)OC(C)=O (stereo not drawn) [Analog 1, Discodermolide-3,7,11,17-tetraacetate] | 0.837 | 1.31 | No | negative | No and inactive | – | – | – | – | – | – | – | – | – | –
2 | C=CC=CC(C)C(OC(N)=O)C(C)C(OC(C)=O)C(C)CC(C)=CC(C)C(O)C(C)C=CC(CC1OC(=O)C(C)C(OC(C)=O)C1C)OC(C)=O (stereo not drawn) [Analog 2, Discodermolide-3,7,17-triacetate] | > 6.83 | > 1.31 | No | negative | No and inactive | No | – | – | – | – | – | – | – | – | –
3 | C=CC=CC(C)C(OC(N)=O)C(C)C(O)C(C)CC(C)=CC(C)C(OC(C)=O)C(C)C=CC(CC1OC(=O)C(C)C(OC(C)=O)C1C)OC(C)=O (stereo not drawn) [Analog 3, Discodermolide-3,7,11-triacetate] | 0.166 | 0.554 | No | negative | No and inactive | – | – | – | – | – | – | – | – | – | –
4 | C=CC=CC(C)C(OC(N)=O)C(C)C(O)C(C)CC(C)=CC(C)C(O)C(C)C=CC(CC1OC(=O)C(C)C(OC(C)=O)C1C)OC(C)=O (stereo not drawn) [Analog 4, Discodermolide-3,7-diacetate] | 0.0007 | 0.0037 | Yes and induced similar microtubule bundle formation | – | Yes and able to induce tubulin polymerization | – | Yes | improved | improved | – | – | – | – | – | –
5 | C=CC=CC(C)C(OC(N)=O)C(C)C(O)C(C)CC(C)=CC(C)C(OC(C)=O)C(C)C=CC(O)CC1OC(=O)C(C)C(OC(C)=O)C1C (stereo not drawn) [Analog 5, Discodermolide-3,11-diacetate] | 0.103 | 0.295 | No | negative | No and inactive | – | – | – | – | – | – | – | – | – | –
6 | C=CC=CC(C)C(OC(N)=O)C(C)C(OC(C)=O)C(C)CC(C)=CC(C)C(O)C(C)C=CC(O)CC1OC(=O)C(C)C(OC(C)=O)C1C (stereo not drawn) [Analog 6, Discodermolide-3,17-diacetate] | 1.15 | 0.736 | No | – | No and inactive | Yes and induced microtubule bundles only at 1000 nM | – | – | – | – | – | – | – | – | –
7 | C=CC=CC(C)C(OC(N)=O)C(C)C(O)C(C)CC(C)=CC(C)C(O)C(C)C=CC(O)CC1OC(=O)C(C)C(OC(C)=O)C1C (stereo not drawn) [Analog 7, Discodermolide-3-acetate] | 0.009 | 0.0094 | Yes and induced similar microtubule bundle formation | – | Yes and able to induce tubulin polymerization | – | Yes | improved | improved | – | – | – | – | – | –
8 | C=CC=CC(C)C(OC(N)=O)C(C)C(O)C(C)CC(C)=CC(C)C(O)C(C)C=CC(CC1OC(=O)C(C)C(O)C1C)OC(C)=O (stereo not drawn) [Analog 8, Discodermolide-7-acetate] | 0.004 | 0.0008 | Yes and induced similar microtubule bundle formation | – | able to induce tubulin polymerization | Yes | – | improved | improved | Yes | – | – | – | – | –
9 | C=C/C=C\[C@H](C)[C@H](OC(N)=O)[C@@H](C)[C@H](O)[C@@H](C)C/C(C)=C\[C@H](C)[C@@H](O)[C@@H](C)/C=C\[C@@H](O)C[C@@H]1OC(=O)[C@H](C)[C@@H](O)[C@H]1C [Discodermolide 9, (+)discodermolide, reference compound] | 0.035 | 0.034 | Yes | routinely exhibit abnormal formation of multiple centriolar-radiating microtubules with extensive clusters of associated microtubular "bundles" | Yes | – | Yes | – | – | – | induced cell cycle, G2 /M block | induced the formation of microtubule bundles | induced the polymerization of purified tubulin | – | –
10 | CC(=O)O[C@H]1C(=O)[C@@]2(C)[C@H]([C@H](OC(=O)c3ccccc3)[C@]3(O)C[C@H](OC(=O)[C@H](O)[C@@H](NC(=O)c4ccccc4)c4ccccc4)C(C)=C1C3(C)C)[C@]1(OC(C)=O)CO[C@@H]1C[C@@H]2O [Paclitaxel, reference compound] | – | 0.0077 | Yes | routinely exhibit abnormal formation of multiple centriolar-radiating microtubules with extensive clusters of associated microtubular "bundles" | Yes | – | – | – | – | – | – | – | – | induced the formation of microtubule bundles | induced the polymerization of purified tubulin
